Laboratory results: US20170051149A1, “AZOARYLS AS REVERSIBLY MODULATABLE TUBULIN INHIBITORS” (ECOLE NORMALE SUPERIEURE DE LYON, priority 2014, published 2017)
Counter-ions that a name gives are not always drawn.

Tests used:
[1] = UV-Vis absorption spectra of trans and cis isomers (λstrong, εE, λiso); assay type: physicochemical; settings: PBS pH = 7.4, 20% MeCN
Experimental: A(λmeas, λirrad) is used to indicate the measured UV-Vis absorption spectrum in the range 340 nm<λmeas<650 nm, as a function of the irradiating wavelength λirrad once PSS(λirrad) has been established. UV-Vis measurement of A(λmeas, λirrad) was performed. It was considered that the PSS had been established when the absorbance profile ceased to alter under continued irradiation. An isosbestic point (wavelength λiso) was found for each compound by examining where the absorption A(λmeas) was invariant with respect to changing λirrad. A(λmeas, dark) was also acquired with samples that had been kept in the dark for at least several hours, and it was assumed that no significant spectral contribution from the cis isomer was present in these spectra. […]
HPLC (high-performance liquid chromatography) was then used as described in Part A to measure ε*E(λ) and ε*Z(λ) (the separated absorption profiles of trans and cis isomers respectively, in arbitrary units which are not intercomparable in an absolute sense). It was approximated that these spectra would be identical in shape if measured under the UV-Vis conditions, so once ε*E(λ) and ε*Z(λ) were scaled appropriately relative to each other, these scaled spectra could be used to deconvolute A(λmeas, λirrad). This approximation was considered useful especially in the regions of greatest spectral interest, ie. regions of relatively strong absorption (since only rather well-absorbed wavelengths will allow significant photoisomerisation under finite photon flux). To place the arbitrary-unit absorption spectra on an absolute scale, the maximal absorption wavelength λstrong of the trans-isomer was first selected by examining A(λmeas, dark): typically, λstrong≈380 nm. with Expressing A(λstrong, dark) in units M^−1cm^−1, ε*E(λstrong) was then scaled so that εE(λstrong)=A(λstrong, dark), giving:
εE(λ)=ε*E(λ)×[A(λstrong,dark)/ε*E(λstrong)]
and the isosbestic point was used to scale the cis-isomer spectrum as per:
εZ(λ)=ε*Z(λ)×[εE(λiso)/ε*Z(λiso)]
However, using A(λstrong, dark) was preferred, since A(λiso) was typically so much smaller that the standard deviation in the scaled absorptivities which it generated was far greater.
Absorption spectra in cuvette (“UV-Vis”) were acquired on a Varian CaryScan 50 (1 cm, 100 μL or 1 mL volume) with Peltier cell temperature control unit maintained at 37° C., in PBS at pH˜7.4 containing a low percentage of cosolvent if needed (typically 2% MeCN or 5% DMSO). A ThorLabs Polychrome V monochromator with a fibre optic cable output directed into the cuvette was used to perform photoisomerisation studies by UV-Vis spectrophotometry although single LEDs of approximately 10-20 mW output, 15-20° cone angle, and 10-15 nm bandwidth FWHM, obtained commercially from Roithner Lasertechnik GmbH, were equally successful in providing repeatable monochromatic photoisomerisation. Separated spectra of trans and […] forms were acquired from the inline Diode Array Detector on the AGILENT 1260 SL coupled LC-MS system after HPLC separation. Fluorescence spectrophotometry (excitation and emission spectra) were acquired on a Varian CaryEclipse fluorescence spectrophotometer.
By the above procedure, the trans- and cis-isomers of each species were separated by HPLC as described in Part A, and ε*E(λ) and ε*Z(λ) were measured on the inline ultraviolet/visible Diode Array Detector; these were then scaled as outlined above. The parameters λstrong, εE(λstrong) and λiso are tabulated for selected compounds below (Table 1).

[2] = thermal reversion halflife of spontaneous cis->trans isomerisation; assay type: physicochemical; settings: PBS pH = 7.4, 20% MeCN
Text: Finally, trends in τ were ascertained by establishing the PSS at λstrong, then turning off the light source at time t0, and measuring A(λstrong, t) over time. Data were acquired for half an hour, or else the first three halflives (whichever was the shorter period), then fitted to the equation:
A(λstrong,t)=A(λstrong,dark)−[A(λstrong,dark)−A(λstrong,t0)]×e^−kt
This fit was used to return an in vitro halflife τ* for the cis->trans spontaneous thermal reversion isomerisation process, defined as τ=ln 2/k. It should be noted however, that azoaryl compounds' thermal reversion rates are known to depend strongly upon their microenvironment, such as pH and solvent/solvation effects^[7,38]. This was shown for compound (I.1), where a change of only 1.4 pH units gave a 25% change in τ*; note that different compounds are expected to respond very differently to changes in pH so no unifying trends are expected. Therefore the τ* acquired in vitro were considered appropriate only for qualitative intercomparison between samples (trend of τ* vs structure), rather than quantitative prediction of the τ values which might be experienced in cellulo or in vivo. Indeed, these in vitro τ* values appeared at least three times longer than what would have been expected based on in cellulo experiments where the pause time between activating pulses was varied.
Thermal reversion times were measured as described above. Those for selected compounds are presented below (Table 2).

[3] = tested on: HeLa cells; experiment: cytotoxicity by crystal violet staining; assay type: cell-based; settings: 40 h
Experimental: Seven of the compounds according to the invention were selected for biological tests. Their cytotoxicity was assessed using crystal violet staining as adapted from standard procedure^[31]. Briefly, HeLa cells were seeded on 96-well plates, treated with the given concentrations of the selected compound, and exposed or not to the pulse protocol of illumination with light at 390 nm (pulses of 75 ms every 15 s). After 40 h cells were stained with crystal violet solution (0.5% crystal violet in 20% methanol) for 10 min. Unbound crystal violet was removed by rinsing with distilled water and cells were air-dried. Crystal violet was subsequently eluted from cells with 0.1 M sodium citrate in 50% ethanol. The absorbance of crystal violet is proportional to the cell number and was determined at 590 nm with a FLUOstar Omega microplate reader (BMG Labtech).
Each compound was tested at 6 doses: 100 nM, 500 nM, 1 μM, 2 μM, 5 μM and 10 μM. In order to ensure their solubility in the cell culture media, DMSO was used as a co-solvent, and to provide comparability between all samples the volume of DMSO was adjusted to obtain its final concentration as 1% in the cell culture media for all the compounds at all concentrations tested.
Results presented in Table 4 below are expressed as a fold growth relative to the control growth of the cells treated only with a co-solvent (1% DMSO), and are represented as a mean value from triplicates coming from a representative experiment.

[4] = 100 nM, 390 nm (75 ms every 15 s)
[5] = 500 nM, 390 nm (75 ms every 15 s)
[6] = 1 μM, 390 nm (75 ms every 15 s)
[7] = 2 μM, 390 nm (75 ms every 15 s)
[8] = 5 μM, 390 nm (75 ms every 15 s)
[9] = 10 μM, 390 nm (75 ms every 15 s)

| Compound | εE(λstrong) [1] | λiso [1] | λstrong [1] | τ, reversion time [2] | mean fold growth [3, 4] | mean fold growth ([3]; 100 nM, Dark) | mean fold growth [3, 5] | mean fold growth ([3]; 500 nM, Dark) | mean fold growth [3, 6] | mean fold growth ([3]; 1 μM, Dark) | mean fold growth [3, 7] | mean fold growth ([3]; 2 μM, Dark) | mean fold growth [3, 8] | mean fold growth ([3]; 5 μM, Dark) | mean fold growth [3, 9] | mean fold growth ([3]; 10 μM, Dark) |
| --- | --- | --- | --- | --- | --- | --- | --- | --- | --- | --- | --- | --- | --- | --- | --- | --- |
| COc1ccc(N=Nc2cc(OC)c(OC)c(OC)c2)cc1C(=O)O [I.29, 2-methoxy-5-((3,4,5-trimethoxyphenyl)diazenyl)benzoic acid] | 20102 M⁻¹ cm⁻¹ | 447 nm | 365 nm | 104 min |  |  |  |  |  |  |  |  |  |  |  |  |
| COc1ccc(N=Nc2cc(OC)c(OC)c(OC)c2)cc1NC(=O)[C@@H](N)CO [I.20, (2-methoxy 5-((3,4,5-trimethoxyphenyl)diazenyl)phenyl)) 1-L-serinamide 2,2,2-trifluoroacetate salt] |  |  |  |  | 1.09 fold | 0.99 fold | 1.10 fold | 1.11 fold | 1.00 fold | 1.12 fold | 0.96 fold | 1.10 fold | 0.68 fold | 1.03 fold | 0.51 fold | 1.01 fold |
| COc1ccc(N=Nc2cc(OC)c(OC)c(OC)c2)cc1OC [I.11, 1-(3,4-dimethoxyphenyl)-2-(3,4,5-trimethoxyphenyl)diazene] | 18163 M⁻¹ cm⁻¹ | 460 nm | 375 nm | 40 min |  |  |  |  |  |  |  |  |  |  |  |  |
| COc1ccc(N=Nc2cc(OC)c(OC)c(OC)c2)c(OC)c1 [I.12, 1-(2,4-dimethoxyphenyl)-2-(3,4,5-trimethoxyphenyl)diazene] | 12400 M⁻¹ cm⁻¹ | 485 nm | 380 nm | 28 min |  |  |  |  |  |  |  |  |  |  |  |  |
| COc1ccc(N=Nc2cc(OC)c(OC)c(OC)c2)cc1C=O [I.28, 2-methoxy-5-((3,4,5-trimethoxyphenyl)diazenyl)benzaldehyde] | 17813 M⁻¹ cm⁻¹ | 452 nm | 360 nm | 248 min |  |  |  |  |  |  |  |  |  |  |  |  |
| COc1ccc(N=Nc2cc(OC)c(OC)c(OC)c2)cn1 [I.13, 2-methoxy-5-((3,4,5-trimethoxyphenyl)diazenyl)pyridine] | 14200 M⁻¹ cm⁻¹ | 440 nm | 355 nm | 270 min |  |  |  |  |  |  |  |  |  |  |  |  |
| COc1ccc(N=Nc2cc(OC)c(OC)c(OC)c2)c(NC(C)=O)c1 [I.26, N-(5-methoxy-2-((3,4,5-trimethoxyphenyl)diazenyl)phenyl)acetamide] | 16300 M⁻¹ cm⁻¹ | 475 nm | 380 nm | 8.4 min |  |  |  |  |  |  |  |  |  |  |  |  |
| COc1ccc(N=Nc2cc(OC)c(OC)c(OC)c2)c(F)c1 [I.4, 1-(2-fluoro-4-methoxyphenyl)-2-(3,4,5-trimethoxyphenyl)diazene] | 19804 M⁻¹ cm⁻¹ | 455 nm | 365 nm | 119 min | 0.98 fold | 0.93 fold | 0.78 fold | 0.93 fold | 0.53 fold | 0.89 fold | 0.48 fold | 0.94 fold | 0.44 fold | 0.94 fold | 0.36 fold | 0.78 fold |
| COc1ccc(N=Nc2cc(F)c(OC)c(F)c2)cc1 [I.9, 1-(3,5-difluoro-4-methoxyphenyl)-2-(4-methoxyphenyl)diazene] | 11400 M⁻¹ cm⁻¹ | 430 nm | 355 nm | 116 min |  |  |  |  |  |  |  |  |  |  |  |  |
| COc1cc(N=Nc2ccc(OC)c3ncccc23)cc(OC)c1OC [I.14, 8-methoxy-5-((3,4,5-trimethoxyphenyl)diazenyl)quinoline] | 18000 M⁻¹ cm⁻¹ | 485 nm | 390 nm | 3.3 min |  |  |  |  |  |  |  |  |  |  |  |  |
| COc1ccc(N=Nc2cc(OC)c(OC)c(OC)c2)cc1Br [I.27, 1-(3-bromo-4-methoxyphenyl)-2-(3,4,5-trimethoxyphenyl)diazene] | 19540 M⁻¹ cm⁻¹ | 445 nm | 365 nm | 129 min |  |  |  |  |  |  |  |  |  |  |  |  |
| COc1cc(N=Nc2ccc(OC)c([N+](=O)[O-])c2F)cc(OC)c1OC [I.7, 1-(2-fluoro-4-methoxy-3-nitrophenyl)-2-(3,4,5-trimethoxyphenyl)diazene] | 13600 M⁻¹ cm⁻¹ | 455 nm | 365 nm | 50 min |  |  |  |  |  |  |  |  |  |  |  |  |
| COc1ccc(N=Nc2cc(OC)c(OC)c(OC)c2)cc1OC(=O)N1CCCCC1CNC(=O)[C@@H](N)CC(C)C (stereo partly drawn) [I.10, (2-methoxy 5-((3,4,5-trimethoxyphenyl)diazenyl)phenyl) 2-((L-leucinamido)methyl)piperidine 1-carboxylate 2,2,2-trifluoroacetate salt] |  |  |  |  | 0.986 fold | 0.95 fold | 0.945 fold | 0.99 fold | 0.387 fold | 0.92 fold | 0.357 fold | 0.90 fold | 0.217 fold | 0.99 fold | 0.293 fold | 0.78 fold |
| COc1ccc(N=Nc2cc(OC)c(OC)c(OC)c2)c(F)c1F [I.5, 1-(2,3-difluoro-4-methoxyphenyl)-2-(3,4,5-trimethoxyphenyl)diazene] | 19578 M⁻¹ cm⁻¹ | 450 nm | 365 nm | 134 min |  |  |  |  |  |  |  |  |  |  |  |  |
